Tests used:
rat [1] = conditions: Subchronic oral toxicity in rodents, fischer, Feed, dose end: 90 day, group: systemic, systemic / organ weight / kidney / absolute + systemic / organ weight / kidney / relative to body weight + systemic / pathology gross / …
mouse = conditions: Combined chronic toxicity/carcinogenicity; cd1; Oral; Feed; dose end: 24 month; group: systemic; systemic / pathology microscopic / stomach / carcinoma + systemic / organ weight / kidney / nos + systemic / organ weight / ovary / relative…
dog [2] = conditions: Subchronic oral toxicity in nonrodent, beagle, Capsule, dose end: 102 day, group: systemic
rabbit = conditions: Prenatal developmental toxicity study, new zealand white, Oral, Gavage/Intubation, dose end: 19 GD, group: maternal
dog [3] = conditions: Subchronic oral toxicity in nonrodent, beagle, Capsule, dose end: 3 month, group: systemic, systemic / clinical chemistry / alanine aminotransferase (alt/sgpt) / alanine aminotransferase (alt/sgpt)
rat [4] = conditions: Fertility (Segment I); wistar; Injection; Intravenous; dose end: 7 GD; group: parental; systemic / in life observation / clinical signs / motor activity + systemic / in life observation / clinical signs / urine, discoloration + …
[5] = systemic / in life observation / clinical signs / anorexia + systemic / in life observation / clinical signs / no feces

N#Cc1c(Cl)c(Cl)c(Cl)c(C#N)c1Cl [Chlorothalonil] gave an LEL (rat [1]) of 175 mg/kg/day, an LOAEL (rat [1]) of 175 mg/kg/day and an NEL (rat [1]) of under 175 mg/kg/day. For the same compound, the NOAEL (rat [1]) was under 175 mg/kg/day, the LEL (mouse) was 112 mg/kg/day and the LOAEL (mouse) was 112 mg/kg/day. For the same compound, the NEL (mouse) was under 112 mg/kg/day, the NOAEL (mouse) was under 112 mg/kg/day and the LEL (dog [2]; systemic / clinical chemistry / glucose / glucose) was 15 mg/kg/day. For the same compound, the LOAEL (dog [2]; systemic / clinical chemistry / glucose / glucose + systemic / organ weight / liver / absolute + systemic / urinalysis / ph / ph) was 50 mg/kg/day, the NOAEL (dog [2]; systemic / clinical chemistry / glucose / glucose + systemic / organ weight / liver / absolute + systemic / urinalysis / ph / ph + systemic…) was 15 mg/kg/day and the NEL (dog [2]; systemic / clinical chemistry / glucose / glucose + systemic / urinalysis / ph / ph + systemic / hematology / erythrocyte (rbc) count …) was 5 mg/kg/day. For the same compound, the LOAEL (rabbit; systemic / in life observation / body weight / body weight gain + systemic / in life observation / food consumption / food consumption) was 500 mg/kg/day, the NOAEL (rabbit; systemic / in life observation / body weight / body weight gain + systemic / in life observation / food consumption / food consumption + …) was 250 mg/kg/day and the LEL (rabbit; [5]) was 250 mg/kg/day. It also gave an NEL (rabbit; [5]) of under 250 mg/kg/day.

In the case of CC(C)c1ccc(C(=O)N=C(N)N)cc1S(C)(=O)=O.CS(=O)(=O)O [Cariporide mesylate], the LEL (dog [3]) is reported as 8 mg/kg/day, the LOAEL (dog [3]) is reported as over 20 mg/kg/day and the NEL (dog [3]) is reported as 3.2 mg/kg/day. It also gave an NOAEL (dog [3]) of at least 20 mg/kg/day, an LEL (rat [4]) of 100 mg/kg/day and an LOAEL (rat [4]) of over 100 mg/kg/day. The NEL (rat [4]) was 25 mg/kg/day and the NOAEL (rat [4]) was at least 100 mg/kg/day.

From EPA's ToxRefDB 2
